Source: US20240318212A1, “PHOSPHORYLATION OF PHENOLIC PHYTOCHEMICALS BY TWO ENZYMES COUPLED SYSTEM” (National Taiwan University, priority 2023, published 2024)

Tests used:
ErPPK = assay: Effect of polyphenol derivatives on ErPPK activity; type: biochemical, unclassified Erysipelotrichaceae bacterium; settings: 0.25 mM
From the text: FIG. 4 illustrates the effect of polyphenol derivatives on ErPPK. Data are mean SD (n=3), with significance indicated by p<0.05 using t-test. n.s., non-significance.
Considering the known inhibitory effect of aromatic phosphonates on PPK2 enzymes, we investigated the impact of polyphenols and polyphenol phosphates on ErPPK activity to evaluate their integration into a one-pot bi-enzymatic system. LUT was selected as the polyphenol target, based on its incomplete conversion in microbial systems due to its toxic nature.

[1] = versus parent genistein; cited from earlier work
[2] = versus parent genistein; cited from earlier work; remark: listed apart in the source
ovariectomized rats = settings: comparable to estradiol and raloxifene, surpassed genistein; cited from earlier work

SMILES | inhibitory effect on ErPPK activity (ErPPK) | solubility [1] | oral bioavailability [2] | osteoprotective effects (ovariectomized rats)
O=c1cc(-c2ccc(O)c(O)c2)oc2cc(O)cc(O)c12 [LUT, luteolin] | no significant inhibitory effect |  |  | 
O=c1c(-c2ccc(O)cc2)coc2cc(OP(=O)(O)O)cc(O)c12 [Genistein 7-O-phosphate] |  | improved | improved | improved
